“Also recorded” adds a separate entry of the source.
Experiments:
KRAS G12C [1] = system: T1, KRAS G12C; experiment: Protein-Probe thermal stability assay; type: binding, human; conditions: for concentration of saturated stabilization / ΔTm: 50 nM KRAS G12C; for ΔTm: 5 µM inhibitor, saturated
T1 construct: GG-Hs.KRAS4b (2-188) G12C; His6-MBP (N, cleaved yes); made in house; host or cells: E. coli
Method: All Protein-Probe assays were performed using a sample volume of 8 µL and a two-step assay protocol. […] Assays were performed in a sample buffer containing 10 mM HEPES (pH 7.5), 0.001% Triton X-100 and 20 mM NaCl and the buffer was supplemented with 0–10 mM MgCl2, 0–1 mM CaCl2, or 0–1 mM EDTA, depending on the assay. In all thermal stability assays, samples were preincubated at RT for 10 min (nucleotides) or 30 min (inhibitors) prior to thermal measurements. […] At each temperature, samples were incubated for 3 min before the Protein-Probe solution was added, and the TRL-signals at 620 nm were monitored at RT. […]
(§1) All inhibitor assays were performed with a buffer containing 1 mM MgCl2. […]

KRAS G12C [2] = system: T1, KRAS G12C; experiment: SYPRO Orange / ANS thermal ramping assay; type: binding, human; conditions: 10 µM KRAS G12C, 20 µM inhibitor, double transitions
Method: (§2) SYPRO Orange and ANS assays were performed using a one-step protocol, where the samples (8 µL) and SYPRO Orange/ANS solution (12 µL) were combined prior to the first heating step. The samples were incubated for 3 min at each temperature, followed by fluorescence signal measurement. SYPRO Orange was used at 5× (stock 5000×) and ANS at 10 µM final concentration.

KRAS G12C [3] = target: T2, KRAS G12C (Homo sapiens, UniProt P01116, G12C); experiment: Competitive Protein-Probe thermal stability assay with DARPin K13; type: binding; conditions: 50 nM KRAS G12C, 50 nM K13; 2 µM inhibitor
T2 construct: GG-Hs.KRAS4b (2-188) G12C; His6-MBP (N, cleaved yes); made in house; host or cells: E. coli

KRAS WT [4] = system: T3, KRAS WT; experiment: SYPRO Orange thermal ramping assay; type: binding, human; conditions: 10 µM KRAS WT, 20 µM compound
T3 construct: His6-MBP (N, cleaved yes); made in house; host or cells: E. coli
Method: as §2

KRAS G12C [5] = system: T1, KRAS G12C; experiment: Protein-Probe thermal stability assay; type: binding, human; conditions: KRAS G12C 50 nM; 1 µM ARS-1620; 0 mM MgCl2
KRAS WT [6] = system: T3, KRAS WT; experiment: Protein-Probe thermal stability assay; type: binding, human
Method: (§3) All Protein-Probe assays were performed using a sample volume of 8 µL and a two-step assay protocol. Detection was performed at room temperature (RT) by adding 65 µL Protein-Probe solution: 4 µM HIDC (1,1,3,3,3′,3′-hexamethylindodicarbocyanine iodide) and 1–1.5 nM Eu^3+-labeled peptide probe (NH2-[…]). Assays were performed in a sample buffer containing 10 mM HEPES (pH 7.5), 0.001% Triton X-100 and 20 mM NaCl and the buffer was supplemented with 0–10 mM MgCl2, 0–1 mM CaCl2, or 0–1 mM EDTA, depending on the assay. In all thermal stability assays, samples were preincubated at RT for 10 min (nucleotides) or 30 min (inhibitors) prior to thermal measurements. Depending on the studied protein, thermal ramping was performed up to 95 °C, using 5 °C intervals. At each temperature, samples were incubated for 3 min before the Protein-Probe solution was added, and the TRL-signals at 620 nm were monitored at RT.
(§4) In addition, KRAS WT was monitored in a sample buffer supplemented with 0–10 mM MgCl2 or 0–1 mM CaCl2.
[…] KRAS WT (50 nM) was also monitored with 10 µM GDP in a buffer without MgCl2 or supplemented with 0–1 mM CaCl2 or 1 mM EDTA. HRAS (2 µM), NRAS (2 µM), RhoA (2 µM), and Gαi (50 nM) were monitored with 100 µM GDP, GTP, or ATP in buffers with or without 1 mM MgCl2 and 1 mM EDTA. In addition, melting curves for KRAS WT (50 nM) were measured with GTP analogs GTPγS, GMPPNP, and GMPPCP (0–300 µM), and GMP (0–1000 µM) in the presence of 1 mM MgCl2.
as §1

Gαi = experiment: Protein-Probe thermal stability assay; type: binding; conditions: 100 µM GDP or GTP
Method: as §3, §4
(§5) KRAS G13D (50 nM) was monitored in the presence of 0–900 nM GDP, and KRAS WT, G13D, G12D, and Q61R (50 nM) were monitored with 10 and/or 100 µM GDP, GTP, and ATP in buffer supplemented with 1 mM MgCl2. KRAS WT (50 nM) was also monitored with 10 µM GDP in a buffer without MgCl2 or supplemented with 0–1 mM CaCl2 or 1 mM EDTA. HRAS (2 µM), NRAS (2 µM), RhoA (2 µM), and Gαi (50 nM) were monitored with 100 µM GDP, GTP, or ATP in buffers with or without 1 mM MgCl2 and 1 mM EDTA. In addition, melting curves for KRAS WT (50 nM) were measured with GTP analogs GTPγS, GMPPNP, and GMPPCP (0–300 µM), and GMP (0–1000 µM) in the presence of 1 mM MgCl2.

KRAS G13D [7] = system: T4, KRAS G13D; experiment: SYPRO Orange thermal ramping assay; type: binding, human; conditions: KRAS G13D 3 µM, 1 mM MgCl2, GDP 1 µM, ATP 1 mM
T4 construct: GG-Hs.KRAS4b (2-188) G13D; His6-MBP (N, cleaved yes); made in house; host or cells: E. coli
Method: as §2
Thermal stability curves for KRAS WT, G12C, G13D, and Q61R (0–30 µM) were monitored both with SYPRO Orange and ANS in an assay buffer with or without 1 mM MgCl2. In addition, HRAS, NRAS, KRAS V14I, RhoA, and Gαi were studied at 10 µM concentration. KRAS G13D (3 µM) was assayed with SYPRO Orange in thermal ramping in combination with 0–1000 µM GDP, 1000 µM GTP, and 1000 µM ATP in a buffer supplemented with 1 mM MgCl2. Additionally, 10 µM HRAS, NRAS, KRAS V14I, Ac-KRAS iMet-KRAS, RhoA, and Gαi were studied without additional nucleotides or with 10 or 100 µM GDP/GTP in an assay buffer supplemented with 1 mM MgCl2 or 1 mM EDTA.

KRAS G12D = experiment: Protein-Probe thermal stability assay; type: binding, human; conditions: Table S1; KRAS G12D 50 nM; MgCl2 1 mM, GDP 10 mM as headed
Method: as §3, §4, §5
All inhibitor assays were performed with a buffer containing 1 mM MgCl2.
(§6) Assays were performed using three DARPins alone or in combination with small molecular inhibitors. […] The thermal curves were monitored after an additional 30 min incubation at RT.

RhoA = system: T5, RhoA; experiment: Protein-Probe thermal stability assay; type: binding; conditions: Table S1; RhoA 1 µM; additive concentrations not given (100 µM GDP/GTP)
T5 construct: and RhoA (1-182) were gen-; His6-MBP (N, cleaved yes); made in house; host or cells: E. coli
Method: as §3, §4
as §5, with “HRAS (2 µM), NRAS (2 µM), RhoA (2 µM), and Gαi (50 nM) were monitored with 100 µM GDP, GTP, or ATP in buffers with or without 1 mM MgCl2 and 1 mM EDTA.” left out

KRAS Q61R = system: T6, KRAS Q61R; experiment: Protein-Probe thermal stability assay; type: binding, human; conditions: KRAS Q61R 50 nM
T6 construct: GG-Hs.KRAS4b (2-188) Q61R; His6-MBP (N, cleaved yes); made in house; host or cells: E. coli
Method: as §3, §4, §5, §6

KRAS G13D [8] = system: T4, KRAS G13D; experiment: Protein-Probe thermal stability assay; type: binding, human; conditions: KRAS G13D 50 nM
Method: as §3, §4, §5, §6

KRAS WT [9] = target: T7, KRAS WT (Homo sapiens, UniProt P01116); experiment: QRET nucleotide exchange assay, SOScat induced; type: biochemical; conditions: 15 nM KRAS
T7 construct: GG-Hs.KRAS4b (2-188), GG-Hs.KRAS4b (2-188) G12C; His6-MBP (N, cleaved yes); made in house; host or cells: E. coli

[10] = Table S1, EDTA 0.5 mM, MgCl2 1 mM, GDP 10 mM, GTP 10 µM as headed

C=CC(=O)N1CC(N2CCN(C(=O)CNc3cc(C4(C)CC4)c(Cl)cc3O)CC2)C1 [ARS-853]
concentration of saturated stabilization (KRAS G12C [1]): 5 µM
ΔTm (KRAS G12C [1]): 16 °C
maximal thermal stabilization (KRAS G12C [2]): ~13 °C
thermal stability increase in the presence of K13 (KRAS G12C [3]): no thermal stability increase
effect on thermal stability (KRAS WT [4]): Neither compound altered

C=CC(=O)N1CCN(c2ncnc3c(F)c(-c4c(O)cccc4F)c(Cl)cc23)CC1 [ARS-1620]
concentration of saturated stabilization (KRAS G12C [1]): 5 µM
ΔTm (KRAS G12C [1]): 18 °C
thermal stabilization (KRAS G12C [1]; KRAS G12C 50 nM, 1 µM ARS-1620, 1 mM MgCl2): thermally stabilizes
maximal thermal stabilization (KRAS G12C [2]): ~13 °C
thermal stability increase in the presence of K13 (KRAS G12C [3]): no thermal stability increase
thermal stabilization (KRAS G12C [5]): diminished the thermal stability effect; also recorded: required Mg^2+ to stabilize
effect on thermal stability (KRAS WT [4]): Neither compound altered

Nc1nc2c(ncn2[C@@H]2O[C@H](COP(=O)(O)OP(=O)(O)O)[C@@H](O)[C@H]2O)c(=O)[nH]1 [GDP, guanosine-5’-diphosphate]
Tm of nucleotide-preloaded KRAS (KRAS WT [6]; KRAS 50 nM preloaded with the nucleotide, unit not given, in °C (unit assumed)): 60.4 ± 0.2
concentration at which KRAS was stabilized (KRAS WT [6]; KRAS WT 50 nM, 1 mM MgCl2): 10000 nM
ΔTm (KRAS WT [6]; KRAS WT 50 nM, 10 µM GDP in 1 mM MgCl2): 7.6 °C
ΔTm (KRAS WT [6]; KRAS WT 50 nM, 10 µM GDP in the presence of 1 mM EDTA): 11.3 °C
Tm (KRAS WT [6]; KRAS WT 50 nM, 10 µM GDP with 0.1 mM Ca2+, unit not given, in °C (unit assumed)): 61.2 ± 0.9
Tm (KRAS WT [6]; KRAS WT 50 nM, 10 µM GDP with 1 mM Ca2+, unit not given, in °C (unit assumed)): 61.8 ± 0.6
Thermal Stability (°C) (KRAS WT [6]; Table S1, KRAS WT 50 nM, additive as headed: EDTA 0.5 mM, MgCl2 1 mM, GDP 10 mM, GTP 10 µM, GTPγS 10 µM, GMP-PNP 300 µM, GMP-PCP 300 µM, GMP 1 mM): 68.0 ± 0.5 °C
max ΔTm (Gαi; with Mg2+): ≤ 1.0 °C
max ΔTm (Gαi; without Mg2+): ≤ 3.3 °C
stabilization (KRAS G13D [7]): no KRAS G13D stabilization
Thermal Stability (°C) (KRAS G12D): 67.6 ± 0.4 °C
Thermal Stability (°C) (RhoA): 70.1 ± 1.1 °C
stabilization by GDP (KRAS Q61R; 10 µM GDP): not stabilized; also recorded: no change in Tm
Thermal Stability (°C) (KRAS Q61R; [10]): 71.3 ± 0.9 °C
shift of Tm (KRAS G13D [8]; 10 µM GDP): over 10 °C
GDP concentration at which stabilization saturates (KRAS G13D [8]; GDP titration 0–0.9 mM): approximately 300 µM
Thermal Stability (°C) (KRAS G13D [8]; [10]): 60.5 ± 0.2 °C
KRAS binding (KRAS WT [9]; Fig. 3A legend, SOScat 10 nM): < 15 nM
EC50 (KRAS WT [9]; nucleotide titration, SOScat 5 nM (Table S2), 10 nM (Fig. 3 legend)): 11.9 ± 0.7 nM

Source: publication PMC9266822, “Thermal Shift Assay for Small GTPase Stability Screening: Evaluation and Suitability” (International Journal of Molecular Sciences, 2022)
